Reference: PubChem BioAssay AID2305 (GlaxoSmithKline (GSK), 2010)

Each compound was assayed on P. falciparum 3D7 growth, pLDH absorbance (assay: blood-stage malaria parasite growth potency – strain 3D7, dose response (AID 2305)).

SMILES	IC50 [nM]
C[C@@H]1CC[C@H](NC(=O)[C@H](CC2CCCC2)NC(=O)N2CCNCC2)C(=O)CN1S(=O)(=O)c1ccccn1	890
COC(=O)c1c(C#N)c(OC)cc(O)c1CSC[C@H](Nc1nc(-c2ccc([N+](=O)[O-])cc2)cs1)C(=O)NCCN1CCCCC1	1060
S=C(NCCc1ccc(Cl)cc1)NC1CCC(CN2CCC(c3c[nH]c4ccccc34)CC2)CC1 (stereo not drawn)	700
COc1ccc(CNC2CCN(C)CC2)cc1-c1ccc(S(=O)(=O)NCc2ccccc2)c(C)c1	990
COc1cc(C=NNc2ccnc3cc(Cl)ccc23)ccc1O	130
O=C(Nc1cccc(OCc2ccccc2)c1)c1ccc(CN2CCC(Cc3ccccc3)CC2)cc1	850
COc1cccc(Nc2nc(C)cc(Nc3cccc(C#N)c3)n2)c1	1080
Cc1cc(NCC2CCN(CC3CCCCC3)C2)nc(Nc2ccc(Br)cc2)n1 (stereo not drawn)	880
CCOc1cc(Cc2cnc(N)nc2N)cc(OCC)c1OCC	280
Cc1ccc(N2C(N)=NC(N)=NC2c2ccccc2)cc1 (stereo not drawn)	60
O=C(NC1CCN(c2ccnc(Nc3ccc(F)cc3)n2)C1)c1cc2ccccc2s1 (stereo not drawn)	720
Oc1ccc2ccccc2c1C=NNc1nc(Nc2ccccc2)nc(Nc2ccccc2)n1	670
CN1CCCc2ccc(NC(=O)c3cnc(-c4ccccc4)cn3)cc21	910
COc1ccc(NC(=O)Nc2nc(-c3ccc(Cl)c(C)c3)cs2)cc1N1CCN(C)CC1	270
CN1CCC(Oc2ccc(CN3CC[C@H](NC(=O)c4cccc(C#N)c4)C3)c3ccccc23)C1 (stereo partly drawn)	800
COc1cccc(-c2cnc(N)c(-c3nc4cc(Cl)c(F)cc4[nH]3)c2)c1	540
O=C1CCCN1CCCNCc1ccc(-c2cccc(-c3nc4ccc(F)cc4[nH]3)c2)cc1	660
NS(=O)(=O)c1cccc(Nc2nccc(-c3c(-c4cccc(NC(=O)c5c(F)cccc5F)c4)nn4ccccc34)n2)c1	70
CCN(Cc1ccc(-c2ccc(C(F)(F)F)cc2)cc1)C(=O)Cn1c(SCc2cccc(F)c2F)cc(=O)c2cc(CN3CCCCC3)ccc21	800

SMILES	IC50 [nM]
O=S(=O)(Nc1ccc2nccc(N3CCNCC3)c2c1)c1ccc(-c2ccccc2)cc1	980
CCOc1ccc(C(Cc2ccccc2)NC(=O)c2cccnc2)cc1OCC (stereo not drawn)	770
CCC1CCc2cc(N)cc(-c3nc4c(c(C)nn4CC)c(=O)[nH]3)c2O1 (stereo not drawn)	1120
CC[C@@H]([C@@H](Cc1cc2ccccc2s1)C(=O)N[C@@H](CCCCNC(=O)OCc1ccccc1)C(=O)Nc1ccccn1)N(O)C=O	230
CN(C)c1ccc(-c2csc(C(=O)NCC3CCN(Cc4ccc(C(C)(C)C)cc4)C3)c2)cc1 (stereo not drawn)	990
Cc1cc(NN=Cc2cccc([N+](=O)[O-])c2)c2ccc(C(F)(F)F)cc2n1	880
CN(C)c1ccc(-c2csc(C(=O)NC3CCCCN(Cc4ccc(C(C)(C)C)cc4)C3)c2)cc1 (stereo not drawn)	1110
CN1CCN(Cc2ccc(-c3cccc(-c4nc5ccccc5[nH]4)c3)cc2)CC1	1390
N#Cc1cc([N+](=O)[O-])ccc1-n1nc(-c2cccc(Cl)c2)n(CC2CCCO2)c1=S (stereo not drawn)	910
Cn1cc(-c2ccnc3[nH]c(-c4cccc(CNC5CCC(O)CC5)c4)cc23)cn1 (stereo not drawn)	900
CN(C)CCNc1cc(-c2ccc3ccccc3c2)nc2ccccc12	350
CCCS(=O)(=O)c1nc(S(=O)(=O)c2ccc(Cl)cc2)c(N2CCCCC2)s1	1290
COc1ccc2nc(-c3ccccc3)cc(NN=Cc3ccc([N+](=O)[O-])o3)c2c1	200
CN(C)C(=NCCCCCCN=C(/N=C(/N)Nc1ccc(Cl)cc1)N(C)C)/N=C(/N)Nc1ccc(Cl)cc1	530
CCCCCCC(CC)c1cc(O)c2c(c1)OC(C)(C)c1ccncc1-2 (stereo not drawn)	810
Cc1cc(C(=O)Nc2ccc3c(c2)CCN3C2CCN(Cc3csc4ccccc34)C2)no1 (stereo not drawn)	120
CC(C)OC(=O)c1cccnc1SCC(=O)Nc1ccc(C(F)(F)F)cc1Cl	400
CC(C)(C)c1ccc(CNC(=O)c2cc(CNC3CCC(N)CC3)ccc2O)cc1 (stereo not drawn)	1030
Cc1nc(-c2cccc(C(=O)N(Cc3cncn3Cc3cccc(C(F)(F)F)c3)CC3CC3)c2)cs1	940
